From patent US7928140B2, “Benzothiazole PI3 kinase modulators for cancer treatment” (Amgen Inc., priority 2007, dated 2011)
Where two headings read alike, the source gives them in different places.

Key:
PI3K β = target: T1, PI3K β (Homo sapiens, UniProt P42338); assay: In vitro PI3 kinase enzyme assay (beta), ATP loss, bioluminescence; type: biochemical; conditions: read-out: PI3Kβ ATP loss IC50;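 note: purified p110β/p85 heterodimer with PtdIns(4,5)P2 as acceptor, incubated at room temperature, leftover ATP read by luminescence, inhibition scaled to compound-free wells with and without enzyme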
T1 construct: Full length p110 subunits of PI3K α, β and δ, N-terminally labeled with polyHis tag; polyHis (N); made in house; host or cells: Sf9 insect cells (baculovirus)

PI3K α = target: T2, PI3K α (Homo sapiens, UniProt P42336); assay: In vitro PI3 kinase enzyme assay (alpha), ATP loss, bioluminescence; type: biochemical; conditions: read-out: PI3Kα ATP loss IC50;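 note: purified p110α/p85 heterodimer acting on PtdIns(4,5)P2 at room temperature, remaining ATP read by luminescence, inhibition scaled between compound-free wells with and without enzyme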
T2 construct: Full length p110 subunits of PI3K α, β and δ, N-terminally labeled with polyHis tag; polyHis (N); made in house; host or cells: Sf9 insect cells (baculovirus)

[1] = system: phosphorylation of Serine 473 in Akt, HCT 116 human colon carcinoma cells; assay: Cell-based phospho-AKT Ser473 assay (MSD sandwich immunoassay, IGF-1 stimulated); conditions: read-out: HCT 116 pAKT IC50
Procedure, shortened: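 HCT116 cells, 16,000/well and plated overnight, were pre-treated with serially diluted compound for 2 h at 37 °C, then stimulated with IGF-1 at 100 ng/ml for 15 min. Lysates were assayed for Akt pSer473 by MSD sandwich electrochemiluminescence, and IC50 was derived from dose-response data.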

[2] = Homo sapiens, HCT-116, HCT 116 cells

T2 sequence (P42336 whole entry, species assumed): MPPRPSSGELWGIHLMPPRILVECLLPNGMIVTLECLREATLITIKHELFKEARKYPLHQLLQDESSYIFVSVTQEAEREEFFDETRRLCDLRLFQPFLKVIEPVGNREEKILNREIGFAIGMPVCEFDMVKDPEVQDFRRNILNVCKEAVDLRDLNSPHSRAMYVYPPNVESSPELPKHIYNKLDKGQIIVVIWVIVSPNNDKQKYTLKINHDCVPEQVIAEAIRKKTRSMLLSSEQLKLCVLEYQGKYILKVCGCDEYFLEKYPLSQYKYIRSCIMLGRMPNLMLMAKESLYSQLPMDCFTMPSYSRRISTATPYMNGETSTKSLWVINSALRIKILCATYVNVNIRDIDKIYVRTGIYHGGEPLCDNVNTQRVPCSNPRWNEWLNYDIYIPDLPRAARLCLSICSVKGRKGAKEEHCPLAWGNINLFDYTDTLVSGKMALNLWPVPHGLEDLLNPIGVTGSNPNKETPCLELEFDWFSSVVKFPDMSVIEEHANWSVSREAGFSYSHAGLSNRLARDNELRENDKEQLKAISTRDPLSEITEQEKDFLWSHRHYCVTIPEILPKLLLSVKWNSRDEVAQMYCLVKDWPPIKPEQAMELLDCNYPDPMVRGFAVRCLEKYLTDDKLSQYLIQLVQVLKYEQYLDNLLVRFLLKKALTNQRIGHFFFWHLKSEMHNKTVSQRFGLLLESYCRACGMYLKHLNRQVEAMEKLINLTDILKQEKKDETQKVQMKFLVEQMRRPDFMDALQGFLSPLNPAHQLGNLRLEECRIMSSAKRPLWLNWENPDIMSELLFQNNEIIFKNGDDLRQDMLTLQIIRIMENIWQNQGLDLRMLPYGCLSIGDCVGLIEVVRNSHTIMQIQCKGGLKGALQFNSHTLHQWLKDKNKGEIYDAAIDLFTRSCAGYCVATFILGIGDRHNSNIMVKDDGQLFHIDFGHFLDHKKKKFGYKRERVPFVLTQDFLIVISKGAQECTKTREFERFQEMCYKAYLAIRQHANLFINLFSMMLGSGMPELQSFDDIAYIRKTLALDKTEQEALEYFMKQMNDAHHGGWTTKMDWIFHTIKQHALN
T2 sequence (P27986 whole entry partner, species assumed): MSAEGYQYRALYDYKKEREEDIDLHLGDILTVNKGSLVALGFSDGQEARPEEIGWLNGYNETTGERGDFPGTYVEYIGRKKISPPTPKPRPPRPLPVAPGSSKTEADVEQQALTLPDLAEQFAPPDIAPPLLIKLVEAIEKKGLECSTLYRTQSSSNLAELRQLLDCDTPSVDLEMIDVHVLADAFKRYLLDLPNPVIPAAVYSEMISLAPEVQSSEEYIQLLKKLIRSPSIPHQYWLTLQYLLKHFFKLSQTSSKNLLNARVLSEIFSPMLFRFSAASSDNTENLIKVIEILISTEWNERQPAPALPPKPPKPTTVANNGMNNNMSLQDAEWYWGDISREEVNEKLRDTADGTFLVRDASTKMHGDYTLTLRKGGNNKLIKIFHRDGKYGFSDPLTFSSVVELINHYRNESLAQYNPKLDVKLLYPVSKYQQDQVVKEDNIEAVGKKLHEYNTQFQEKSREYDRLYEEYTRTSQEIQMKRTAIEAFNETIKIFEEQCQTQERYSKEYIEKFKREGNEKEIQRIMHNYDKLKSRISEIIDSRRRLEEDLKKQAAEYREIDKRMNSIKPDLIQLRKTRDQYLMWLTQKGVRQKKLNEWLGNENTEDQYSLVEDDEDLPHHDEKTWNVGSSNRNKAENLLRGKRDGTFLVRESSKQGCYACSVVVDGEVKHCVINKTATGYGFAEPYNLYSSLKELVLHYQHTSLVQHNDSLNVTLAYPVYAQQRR
T1 sequence (P42338 whole entry): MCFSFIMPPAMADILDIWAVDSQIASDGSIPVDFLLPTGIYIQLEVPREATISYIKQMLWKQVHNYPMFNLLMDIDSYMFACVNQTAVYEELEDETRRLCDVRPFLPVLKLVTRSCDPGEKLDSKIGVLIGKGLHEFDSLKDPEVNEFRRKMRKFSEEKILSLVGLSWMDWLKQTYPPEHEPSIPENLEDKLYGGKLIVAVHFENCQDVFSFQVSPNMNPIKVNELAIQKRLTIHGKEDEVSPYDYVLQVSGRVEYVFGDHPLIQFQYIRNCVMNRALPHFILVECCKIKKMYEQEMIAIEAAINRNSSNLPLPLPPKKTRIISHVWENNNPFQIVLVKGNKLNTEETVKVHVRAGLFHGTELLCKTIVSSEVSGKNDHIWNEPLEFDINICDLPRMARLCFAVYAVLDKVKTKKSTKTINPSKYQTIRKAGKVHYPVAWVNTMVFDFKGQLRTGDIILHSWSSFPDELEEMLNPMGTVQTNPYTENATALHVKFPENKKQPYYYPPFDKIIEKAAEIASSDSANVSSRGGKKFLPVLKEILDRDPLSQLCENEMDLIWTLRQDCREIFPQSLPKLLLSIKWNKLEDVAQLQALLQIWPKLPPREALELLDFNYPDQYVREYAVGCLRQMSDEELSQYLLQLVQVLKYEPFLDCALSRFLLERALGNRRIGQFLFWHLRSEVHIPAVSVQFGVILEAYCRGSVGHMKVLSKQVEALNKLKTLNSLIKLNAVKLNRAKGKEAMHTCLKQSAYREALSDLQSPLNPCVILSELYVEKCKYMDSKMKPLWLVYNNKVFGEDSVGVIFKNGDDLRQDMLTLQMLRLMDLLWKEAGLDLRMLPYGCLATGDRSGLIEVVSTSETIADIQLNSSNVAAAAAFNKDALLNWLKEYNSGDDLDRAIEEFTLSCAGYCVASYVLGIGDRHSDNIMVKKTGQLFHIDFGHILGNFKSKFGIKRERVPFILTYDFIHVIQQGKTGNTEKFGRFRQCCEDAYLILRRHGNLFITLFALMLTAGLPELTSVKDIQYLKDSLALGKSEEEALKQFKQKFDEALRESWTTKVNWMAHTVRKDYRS
T1 sequence (P27986 whole entry partner): as the sequence (P27986 whole entry partner, species assumed) above

Structure (SMILES) | IC50 (PI3K β) [nM] | IC50 (PI3K α) [nM] | IC50 [1, 2] [nM] | IC50 ([1]; HCT 116 cells) [nM]
CC(=O)Nc1nc2ccc(-c3ccnc(NC4CCOCC4)n3)cc2s1 [Example 261, N-(6-(2-(tetrahydro-2H-pyran-4-ylamino)pyrimidin-4-yl)benzo[d]thiazol-2-yl)acetamide] | 13100 | 900 | 1700 | –
CC(=O)Nc1nc2ccc(-c3cncc(NS(=O)(=O)c4ccccc4)c3)cc2s1 [Example 202, N-(6-(5-(phenylsulfonamido)pyridin-3-yl)benzo[d]thiazol-2-yl)acetamide] | 31.7 | 5.6 | 271 | –
CC(=O)Nc1nc2ccc(-c3ccnc(OCC(C)(C)C)n3)cc2s1 [Example 42, N-(6-(2-(2,2-dimethylpropoxy)-4-pyrimidinyl)-1,3-benzothiazol-2-yl)acetamide] | 43000 | 501 | 6180 | –
CC(=O)Nc1nc2ccc(-c3ccnc(N(C)S(=O)(=O)c4cccs4)n3)cc2s1 [Example 206, N-(6-(2-(N-methylthiophene-2-sulfonamido)pyrimidin-4-yl)benzo[d]thiazol-2-yl)acetamide] | 194 | 177 | 381 | –
COc1cc(-c2ccc3nc(NC(C)=O)sc3c2)cnc1Cl [Example 240, N-(6-(6-chloro-5-methoxypyridin-3-yl)benzo[d]thiazol-2-yl)acetamide] | 1280 | 155 | 643 | –
COc1ccc(S(=O)(=O)N(C)c2nccc(-c3ccc4nc(NC(C)=O)sc4c3)n2)cc1 [Example 88, N-(6-(2-(4-Methoxy-N-methylphenylsulfonamido)pyrimidin-4-yl)benzo[d]thiazol-2-yl)acetamide] | 79.1 | 39.3 | 68.8 | –
CC(=O)Nc1nc2ccc(-c3ccnc(N(C)S(=O)(=O)c4ccc5ccccc5c4)n3)cc2s1 [Example 214, N-(6-(2-(N-methylnaphthalene-2-sulfonamido)pyrimidin-4-yl)benzo[d]thiazol-2-yl)acetamide] | 86.2 | 74 | 256 | –
CC(=O)Nc1nc2ccc(-c3cccc(N(C)S(=O)(=O)c4ccccc4)n3)cc2s1 [Example 75, N-(6-(6-(methyl(phenylsulfonyl)amino)-2-pyridinyl)-1,3-benzothiazol-2-yl)acetamide] | 338 | 82.5 | 221 | –
CC(=O)Nc1nc2ccc(-c3cccc(NS(=O)(=O)c4ccc(C)cc4)c3)nc2s1 [Example 136, N-(5-(3-(4-methylphenylsulfonamido)phenyl)thiazolo[5,4-b]pyridin-2-yl)acetamide] | 199 | 58.6 | 172 | –

More lines, in order of falling IC50 (PI3K β), values ahead:

IC50 (PI3K β) [nM] | IC50 (PI3K α) [nM] | IC50 [1, 2] [nM] | IC50 ([1]; HCT 116 cells) [nM] | Structure (SMILES)
464 | 83.3 | 236 | – | CC(=O)Nc1nc2ccc(-c3cncc(OCC#N)c3)cc2s1 [Example 288, N-(6-(5-(Cyanomethoxy)pyridin-3-yl)benzo[d]thiazol-2-yl)acetamide]
407 | 122 | 1020 | – | CC(=O)Nc1nc2ccc(-c3ccnc(Sc4ccc(F)cc4)n3)cc2s1 [Example 26, N-(6-(2-((4-fluorophenyl)sulfanyl)-4-pyrimidinyl)-1,3-benzothiazol-2-yl)acetamide]
402 | 254 | > 5000 | – | CNC(=O)Nc1nc2ccc(-c3ccnc(OCc4ccccc4)n3)cc2s1 [Example 56, 1-(6-(2-(benzyloxy)-4-pyrimidinyl)-1,3-benzothiazol-2-yl)-3-methylurea]
321 | 27.1 | 80.6 | – | COc1ccc(S(=O)(=O)N(C)c2cncc(-c3ccc4nc(NC(C)=O)sc4c3)n2)cc1 [Example 126, N-(6-(6-(((4-methoxyphenyl)sulfonyl)(methyl)amino)-2-pyrazinyl)-1,3-benzothiazol-2-yl)acetamide]
237 | 181 | 310 | – | CC(=O)Nc1nc2ccc(-c3ccnc(N(C)S(=O)(=O)c4ccccc4)n3)cc2s1 [Example 91, N-(6-(2-(methyl(phenylsulfonyl)amino)-4-pyrimidinyl)-1,3-benzothiazol-2-yl)acetamide]
221 | 19.9 | 56.7 | – | CC(=O)Nc1nc2ccc(-c3cnc(Cl)c(N(C)C)c3)cc2s1 [Example 269, N-(6-(6-Chloro-5-(dimethylamino)pyridin-3-yl)benzo[d]thiazol-2-yl)acetamide]
82.6 | 20.1 | 917 | – | COc1cccc(S(=O)(=O)Nc2nccc(-c3ccc4nc(NC(C)=O)sc4c3)n2)c1 [Example 85, N-(6-(2-(((3-methoxyphenyl)sulfonyl)amino)-4-pyrimidinyl)-1,3-benzothiazol-2-yl)acetamide]
75.4 | 41.5 | 1230 | – | COc1ccc(Sc2cncc(-c3ccc4nc(NC(C)=O)sc4c3)n2)cc1 [Example 133, N-(6-(6-((4-methoxyphenyl)sulfanyl)-2-pyrazinyl)-1,3-benzothiazol-2-yl)acetamide]
24.9 | 6 | 348 | – | Cc1cc(F)ccc1S(=O)(=O)Nc1cc(-c2ccc3nc(N)sc3c2)cnc1Cl [Example 312, N-(5-(2-amino-1,3-benzothiazol-6-yl)-2-chloro-3-pyridinyl)-4-fluoro-2-methylbenzenesulfonamide]
15.7 | 6.7 | 123 | – | CC(=O)Nc1nc2ccc(-c3cncc(NS(=O)(=O)c4ccc(C(F)(F)F)cc4)c3)cc2s1 [Example 196, N-(6-(5-(4-(trifluoromethyl)phenylsulfonamido)pyridin-3-yl)benzo[d]thiazol-2-yl)acetamide]
7.2 | 6.2 | – | 8.3 | CC(=O)Nc1nc2ccc(-c3cnc(Cl)c(NS(=O)(=O)c4ccc(C(C)O)cc4)c3)cc2s1 (single isomer, unassigned) [Example 257, N-(6-(6-chloro-5-(((4-(1-hydroxyethyl)phenyl)sulfonyl)amino)-3-pyridinyl)-1,3-benzothiazol-2-yl)acetamide]
